PubChem BioAssay AID2060620 (Molecular Pharmacology Branch, DTP, NCI, 2025)

Test system: 328373-195-R-J1-PDC complex spheroids, viability % test/control
Experiment: Anticancer human tumor 328373-195-R-J1-PDC patient-derived head and neck squamous carcinoma cell line growth inhibition [CLK]
Conditions: for IC50: curve of first compound; for viability, T/C: stronger effect = lower value
From the text: A high-throughput screen of multi-cell type tumor spheroids was designed to identify active combinations of […] and targeted small molecules. Complex spheroids include a stromal component modeled by human endothelial cells (HUVEC) and fibroblasts modeled by human mesenchymal stem cells (MSCs). The concentration ranges selected for each drug and investigational agent were based upon clinically achievable concentrations if the clinical Cmax of the agent was known.
Compounds. The drugs and investigational agents: cirtuvivint (SM08502; NSC835563), CC-671 (NSC850746), vemurafenib (NSC761431), tapotoclax (NSC804041), sotorasib (NSC818433), adagrasib (NSC831453), MRTX-1133 (NSC836407), BAY2416964 (NSC825713), copanlisib (NSC816437), inavolisib (NSC800729), abemaciclib (NSC768073), osimertinib (NSC779217), entinostat (NSC756642), eltanexor (KPT-8602, NSC794443), venetoclax (NSC766270), ceralasertib (NSC777638), bortezomib (NSC756655), olaparib (NSC753686), talazoparib (NSC767125), alisertib (NSC759677), peposertib (NSC802822), gemcitabine (NSC613327), 5-fluorouracil (NSC19893), SN-38 (NSC673596), oxaliplatin (NSC266046), paclitaxel (NSC125973), and doxorubicin (NSC123127), were obtained from the National Cancer Institute (NCI) Developmental Therapeutics Program Chemical Repository. The FDA-approved anticancer drug set is available from the Developmental Therapeutics Program at https://dtp.cancer.gov/organization/dscb/obtaining/available plates.htm. […] The stock solutions were prepared in dimethyl sulfoxide (DMSO, Sigma-Aldrich, St. Louis, MO, cat. D2650), except for the platinum complexes which were prepared in saline (Quality Biological, Gaithersburg, MD, cat. 114-055-101), at 800-fold the tested concentration and stored at -70 degrees C prior to their use. All drugs and investigational agents were tested over a range starting from a high concentration at or near the clinical Cmax and decreasing in half-log increments. If the clinical Cmax for an agent had not been determined, the highest concentration tested was 10 microM.
Cell Culture. All cells were maintained in an incubator at 37 degrees C and 5% CO2 with 95% humidity. The PDC lines were cultured according to standard operating procedures established by the NCI PDMR. Briefly, all PDCs were thawed and cultured in Matrigel-coated flasks prepared with a working solution of 1X Ham's F-12 nutrient mix, without supplementation (Invitrogen, Waltham, MA, cat. 11765054), 100 U/mL penicillin-streptomycin (Invitrogen, cat. 15140122), and 2.5% Matrigel (Corning Inc., Corning, NY, cat. 354248) for the first three passages. The 947758-054-R-J2-PDC line was cultured in 6B/Colon 1A media, which includes advanced DMEM/F-12 (Thermo Fisher Scientific, cat. 12634028), 10 mM HEPES (Thermo Fisher Scientific, cat. 15630080), 1X GlutaMAX supplement (Thermo Fisher Scientific, cat. 35050061), 0.1 mg/mL primocin (InvivoGen, cat. ant-pm-2), 10% defined fetal bovine serum, heat inactivated (HyClone Laboratories Inc., cat. SH30070.03HI), 1.25 mM N-Acetyl-L-cysteine (Sigma-Aldrich, cat. A9165), 10 mM nicotinamide (Sigma-Aldrich, cat. N0636), 1X B-27 supplement (Thermo Fisher Scientific, cat. 17504044), 1X N-2 supplement (Thermo Fisher Scientific, cat. 17502048), and 10 microM Y-27632 dihydrochloride (Tocris Bioscience, cat. 1254). The 876862-298-R-J1-PDC was cultured in 6E media, which includes all 6B/Colon 1A media components plus 50% L-WRN conditioned media (ATCC, cat. CRL-3276), 50 ng/mL recombinant human EGF recombinant protein (hEGF; Thermo Fisher Scientific, cat. PHG0311), 10 ng/mL recombinant human fibroblast growth factor 10 (hGFG-10; PeproTech, cat. 100-26), 1 ng/mL recombinant human fibroblast growth factor 2 (hFGF-2; PeproTech, cat. 100-18B), and 1 µM prostaglandin E2 (PGE2; Tocris, cat. 2296). The 227483-062-R1-J1-PDC line was cultured in Panc media, containing all 6E components except hFGF-2, with the addition of 500 nM SB-431542 (Selleckchem, cat. S1067) and 10 nM gastrin (Tocris, cat. 3006). […]

[1] = second compound 0.0316 µM, first compound 0.0316 µM
[2] = second compound 0.0316 µM, first compound 0.1 µM
[3] = second compound 0.0316 µM, first compound 0.316 µM
[4] = second compound 0.0316 µM, first compound 1 µM
[5] = second compound 0.1 µM, first compound 0.0316 µM
[6] = second compound 0.1 µM, first compound 0.1 µM
[7] = second compound 0.1 µM, first compound 0.316 µM
[8] = second compound 0.1 µM, first compound 1 µM
[9] = second compound 0.316 µM, first compound 0.0316 µM
[10] = second compound 0.316 µM, first compound 0.1 µM
[11] = second compound 0.316 µM, first compound 0.316 µM
[12] = second compound 0.316 µM, first compound 1 µM
[13] = second compound 1 µM, first compound 0.0316 µM
[14] = second compound 1 µM, first compound 0.1 µM
[15] = second compound 1 µM, first compound 0.316 µM
[16] = second compound 1 µM, first compound 1 µM
[17] = second compound 3.16 µM, first compound 0.0316 µM
[18] = second compound 3.16 µM, first compound 0.1 µM
[19] = second compound 3.16 µM, first compound 0.316 µM
[20] = second compound 3.16 µM, first compound 1 µM
[21] = second compound 10 µM, first compound 0.0316 µM
[22] = second compound 10 µM, first compound 0.1 µM
[23] = second compound 10 µM, first compound 0.316 µM
[24] = second compound 10 µM, first compound 1 µM
[25] = second compound 0.0316 µM, first compound 0.00316 µM
[26] = second compound 0.0316 µM, first compound 0.01 µM
[27] = second compound 0.1 µM, first compound 0.00316 µM
[28] = second compound 0.1 µM, first compound 0.01 µM
[29] = second compound 0.316 µM, first compound 0.00316 µM
[30] = second compound 0.316 µM, first compound 0.01 µM
[31] = second compound 1 µM, first compound 0.00316 µM
[32] = second compound 1 µM, first compound 0.01 µM
[33] = second compound 3.16 µM, first compound 0.00316 µM
[34] = second compound 3.16 µM, first compound 0.01 µM
[35] = second compound 10 µM, first compound 0.00316 µM
[36] = second compound 10 µM, first compound 0.01 µM
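Further: spheroids exposed to the agents for 7 days.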

O=C(c1cc(Cc2n[nH]c(=O)c3ccccc23)ccc1F)N1CCN(C(=O)C2CC2)CC1 + CN1CCN(c2cc(C(=O)Nc3cc4cc(-c5cnn(C)c5)ccc4cn3)ccn2)CC1
IC50 (second compound 0.0316 µM): > 10000 nM | IC50 (second compound 0.1 µM): > 10000 nM | IC50 (second compound 0.316 µM): < 31.6 nM | IC50 (second compound 1 µM): < 31.6 nM | IC50 (second compound 3.16 µM): < 31.6 nM | IC50 (second compound 10 µM): < 31.6 nM | viability, T/C [1]: 92.9% | viability, T/C [2]: 91% | viability, T/C [3]: 98.9% | viability, T/C [4]: 92.7% | viability, T/C (second compound 0.0316 µM, first compound 3.16 µM): 90.4% | viability, T/C (second compound 0.0316 µM, first compound 10 µM): 78.5% | viability, T/C [5]: 76.8% | viability, T/C [6]: 81.4% | viability, T/C [7]: 86.4% | viability, T/C [8]: 83.9% | viability, T/C (second compound 0.1 µM, first compound 3.16 µM): 79% | viability, T/C (second compound 0.1 µM, first compound 10 µM): 57.1% | viability, T/C [9]: 23.5% | viability, T/C [10]: 29.2% | viability, T/C [11]: 23.1% | viability, T/C [12]: 27.4% | viability, T/C (second compound 0.316 µM, first compound 3.16 µM): 24.4% | viability, T/C (second compound 0.316 µM, first compound 10 µM): 17.1% | viability, T/C [13]: 0.23% | viability, T/C [14]: 0.16% | viability, T/C [15]: 1.14% | viability, T/C [16]: 0.33% | viability, T/C (second compound 1 µM, first compound 3.16 µM): 2.95% | viability, T/C (second compound 1 µM, first compound 10 µM): 2.82% | viability, T/C [17]: 2.14% | viability, T/C [18]: 2.06% | viability, T/C [19]: 2.2% | viability, T/C [20]: 1.77% | viability, T/C (second compound 3.16 µM, first compound 3.16 µM): 3.1% | viability, T/C (second compound 3.16 µM, first compound 10 µM): 1.47% | viability, T/C [21]: 0.09% | viability, T/C [22]: 3.55% | viability, T/C [23]: 1.83% | viability, T/C [24]: 0.13% | viability, T/C (second compound 10 µM, first compound 3.16 µM): 3.63% | viability, T/C (second compound 10 µM, first compound 10 µM): 0.27%

Cn1ncnc1[C@H]1c2n[nH]c(=O)c3cc(F)cc(c23)N[C@@H]1c1ccc(F)cc1 + CN1CCN(c2cc(C(=O)Nc3cc4cc(-c5cnn(C)c5)ccc4cn3)ccn2)CC1
IC50 (second compound 0.0316 µM): > 100 nM | IC50 (second compound 0.1 µM): > 100 nM | IC50 (second compound 0.316 µM): < 0.316 nM | IC50 (second compound 1 µM): < 0.316 nM | IC50 (second compound 3.16 µM): < 0.316 nM | IC50 (second compound 10 µM): < 0.316 nM | viability, T/C (second compound 0.0316 µM, first compound 0.000316 µM): 93.5% | viability, T/C (second compound 0.0316 µM, first compound 0.001 µM): 84.3% | viability, T/C [25]: 91.8% | viability, T/C [26]: 119% | viability, T/C [1]: 95.1% | viability, T/C [2]: 82.2% | viability, T/C (second compound 0.1 µM, first compound 0.000316 µM): 80.5% | viability, T/C (second compound 0.1 µM, first compound 0.001 µM): 78.7% | viability, T/C [27]: 83.9% | viability, T/C [28]: 86.8% | viability, T/C [5]: 85.8% | viability, T/C [6]: 59.7% | viability, T/C (second compound 0.316 µM, first compound 0.000316 µM): 29.9% | viability, T/C (second compound 0.316 µM, first compound 0.001 µM): 33.9% | viability, T/C [29]: 28.4% | viability, T/C [30]: 27% | viability, T/C [9]: 21.4% | viability, T/C [10]: 18.4% | viability, T/C (second compound 1 µM, first compound 0.000316 µM): 0.11% | viability, T/C (second compound 1 µM, first compound 0.001 µM): 2% | viability, T/C [31]: 2.06% | viability, T/C [32]: 0.15% | viability, T/C [13]: 1.32% | viability, T/C [14]: 2.11% | viability, T/C (second compound 3.16 µM, first compound 0.000316 µM): 0.08% | viability, T/C (second compound 3.16 µM, first compound 0.001 µM): 0.77% | viability, T/C [33]: 4.18% | viability, T/C [34]: 0.08% | viability, T/C [17]: 1.73% | viability, T/C [18]: 1.99% | viability, T/C (second compound 10 µM, first compound 0.000316 µM): 0.17% | viability, T/C (second compound 10 µM, first compound 0.001 µM): 0.14% | viability, T/C [35]: 1.47% | viability, T/C [36]: 0.12% | viability, T/C [21]: 2.53% | viability, T/C [22]: 1.76%

CCN1CCN(Cc2ccc(Nc3ncc(F)c(-c4cc(F)c5nc(C)n(C(C)C)c5c4)n3)nc2)CC1 + CN1CCN(c2cc(C(=O)Nc3cc4cc(-c5cnn(C)c5)ccc4cn3)ccn2)CC1
IC50 (second compound 0.0316 µM): > 1000 nM | IC50 (second compound 0.1 µM): > 1000 nM | IC50 (second compound 0.316 µM): < 3.16 nM | IC50 (second compound 1 µM): < 3.16 nM | IC50 (second compound 3.16 µM): < 3.16 nM | IC50 (second compound 10 µM): < 3.16 nM | viability, T/C [25]: 94.7% | viability, T/C [26]: 95.9% | viability, T/C [1]: 103% | viability, T/C [2]: 79.5% | viability, T/C [3]: 71.3% | viability, T/C [4]: 51.2% | viability, T/C [27]: 86.5% | viability, T/C [28]: 84.8% | viability, T/C [5]: 88.5% | viability, T/C [6]: 69.3% | viability, T/C [7]: 63% | viability, T/C [8]: 53.3% | viability, T/C [29]: 29.9% | viability, T/C [30]: 32.9% | viability, T/C [9]: 31.6% | viability, T/C [10]: 26.5% | viability, T/C [11]: 24.2% | viability, T/C [12]: 18.5% | viability, T/C [31]: 0.16% | viability, T/C [32]: 2.17% | viability, T/C [13]: 0.34% | viability, T/C [14]: 1.1% | viability, T/C [15]: 0.85% | viability, T/C [16]: 0.24% | viability, T/C [33]: 0.11% | viability, T/C [34]: 1.57% | viability, T/C [17]: 1.92% | viability, T/C [18]: 0.15% | viability, T/C [19]: 1.14% | viability, T/C [20]: 0.2% | viability, T/C [35]: 0.37% | viability, T/C [36]: 0.56% | viability, T/C [21]: 3.2% | viability, T/C [22]: 0.17% | viability, T/C [23]: 1.94% | viability, T/C [24]: 1.71%
